This is an account of results in US10765673B2, “Methods and compositions useful for treating diseases involving Bcl-2 family proteins with quinoline derivatives” (Eutropics Pharmaceuticals, Inc., priority 2012, dated 2020).

Assay [1] concerns Mcl-1 1780 cell line. As to the kind of experiment: DAPI fluorescence cell-based cytotoxicity (apoptosis) assay, Mcl-1 1780. Particulars: Mcl-1 1780, 24 hours, 125 nM to 1 μM. Details: species or system mouse. Here is the method:
(§1) The mouse leukemia-derived cell lines Mcl-1-1780 and Bcl-2-1863 (Ryan et al., Proc. Nat. Acad. Sci USA, 107, 12895-12900, which is hereby incorporated by reference in its entirety) were obtained under license from Dana Farber Cancer Institute. Cells were grown in RPMI 1640 medium (GIBCO-BRL) with 2 mM L-glutamine, 4.5 g/L glucose, 1.0 mM sodium pyruvate and 5% fetal bovine serum. Cells were expanded in tissue culture in appropriate media and then sub-cultured into 96-well plates at a seeding density of 20,000 cells per well. After incubation for 24 hours, cells were treated with compounds that are titrated into appropriate medium with FCS. Four concentrations of compound were used: 1 μM, 500 nM, 250 nM, and 125 nM. Assay was run in triplicate for each compound at each concentration and averages were calculated. Cells were treated with compound for 24 hours, then fixed with methanol and stained with the DNA-binding agent DAPI (4′,6-diamidino-2-phenylindole). The cells were then examined by fluorescent microscopy; cells in which caspase 3 and caspase 7 have not been activated will emit at […] when excited by […] light. Caspase-mediated cleavage of nucleosomal proteins causes condensed, pyenotic nuclear morphology that may be measured by cell counting.

The test system of assay [2] is Bcl-2 1863 cell line. As to the kind of experiment: DAPI fluorescence cell-based cytotoxicity (apoptosis) assay, Bcl-2 1863. As to conditions: Bcl-2 1863, 24 hours, 125 nM to 1 μM. Details: species or system mouse. Here is the method:
as §1

Assay [3] relates to DHL-6. As to the kind of experiment: In situ mitochondrial cytochrome c release assay, DHL-6. Particulars: DHL-6 (Bax/Bak-functional), semi-permeabilized cells, 1 hour. In kind it is cell-based. The text has this: (§2) The on-target activity of compound 12 was validated. Changes in mitochondrial integrity were observed utilizing anti-cytochrome c conjugated to Alexa488 (BD). When the mitochondria are intact, they retain cytochrome c and have bright, punctate staining with the antibody whereas cells with compromised mitochondrial integrity will lose cytochrome c and will not stain with the antibody. This can be observed by microscopy as well as measured by a shift in fluorescence on the FL1 channel of a flow cytometer.
(§3) The selective response of mitochondria in semi-permeabilized cell lines to the compounds was observed. The assay was adapted from (Campos et al. (2006) Cytometry Part A. 69(A):515-523, which is hereby incorporated by reference in its entirety).
(§4) Suspension cell lines SUDHL6, SUDHL8, and SUDHL10 were grown in RPMI, washed once in 1×PBS and re-suspended at a concentration of 2e6/ml in assay buffer with 0.0025% Digitonin. Assay buffer; 300 mM Trehalose, 10 mM HEPES-KOH pH 7.7, 80 mM KCl, 1 mM EGTA, 1 mM EDTA, 0.1% BSA. 5 mM Succinate. […] Cytochrome c loss was measured by microscopy. At least 100 cells per treatment were counted and scored as positive for cytochrome c loss if they lacked staining. In both methods DMSO was calculated as 0% cytochrome c loss and the Bim response for DHL6 was used to determine 100% cytochrome c loss.

For assay [4], the system named is DHL-8. The assay can be described thus: In situ mitochondrial cytochrome c release assay, DHL-8. In kind it is cell-based. As to conditions: DHL-8, semi-permeabilized cells, 1 hour.
Text: as §2, §3, §4

Assay [5] relates to DHL-10. As to the kind of experiment: In situ mitochondrial cytochrome c release assay, DHL-10. The assay is classed as cell-based. As to conditions: DHL-10 (Bax/Bak-deficient), semi-permeabilized cells, 1 hour.
Text: as §2, §3, §4

With `CCN1CCN(C(c2ccc(C(F)(F)F)cc2)c2ccc3cccnc3c2O)CC1` (centres unmarked) [compound 12, 7-((4-ethylpiperazin-1-yl)(4-(trifluoromethyl)phenyl)methyl)quinolin-8-ol], the “induction of apoptosis (cells exhibiting apoptosis)” value in assay [1] was “induce apoptosis”; in assay [2], “significantly lesser degree”. Also, the values for the cytochrome c release result in assay [3], in assay [4] and in assay [5] were “activity”, “reduced activity” and “lack of activity”, respectively.
